Results on ten compounds are retold here after patent US20240228491A1, “METHIONINE ADENOSYLTRANSFERASE INHIBITOR, PREPARATION METHOD THEREFOR AND APPLICATION THEREOF” (SCINNOHUB PHARMACEUTICAL CO., LTD., priority 2021, published 2024).

Each structure is given as a SMILES string.

For one experiment, the target named is MAT2a (Homo sapiens (Human), UniProt P31153). The experiment in a line: MAT2a enzymatic activity test (colorimetric assay). Format: biochemical. The settings on record: OD620, 150 min reaction, read-out: IC50 against MAT2a. The procedure:
The Colorimetric assay method was used to detect the IC50 value of the tested compounds on MAT2a.
The specific steps were as follows: The compounds having the test starling concentration of 1 μM or 10 μM were diluted into 10 concentration points in a 3-fold gradient. 250 nL of the solutions of the compounds to be tested with 10 different concentrations were taken and added into a 384 well plate for later use. 20 μg/mL of MAT2a enzyme solution was prepared with Assay buffer (50 mM Tris, 50 mM KCl, 10 mM MgCl2, 0.05% polyoxyethylene lauryl ether, pH 8.0). 15 μL of the MAT2a enzyme solution at 20 μg/mL was add into the wells of the compounds to be tested at different concentrations; and 15 μL of Assay buffer was added into the negative control well. An incubation was carried out for 15 minutes after shaking for mixing well. A mixed substrate solution (comprising 400 μM ATP and 600 μM L-Methionine) was prepared with Assay buffer. 10 μL of the mixed substrate solution was added to the positive control well, the compound to be tested well, and the negative control well, respectively, and the reaction began, for a reaction time of 150 min. Then, 50 μL of the reaction stop solution (BIOMOL Green™ Reagent Enzo lifesciences, Cargo No. BML-AK111-1000) was added to stop the reaction, followed by being centrifuged at 1000 rpm for 60 s and then being incubated for 15 min. OD620 was read and data were processed.
By using the log value of the concentration as the X-axis and the inhibition % as the Y-axis, the IC50 value of each compound against enzyme activity was obtained through employing the log(inhibitor) vs. response-Variable slope fitting dose-effect curve of the analysis software GraphPad Prism 5.

The subject of the next experiment is HCT116 MTAP-/- cells. The experiment in a line: Activity test of HCT116 MTAP gene homozygous deletion cells (CellTiter-Glo). In kind it is cell-based. The settings on record: Homo sapiens, HCT-116, 120 h incubation, read-out: HCT116 MTAP-/- Cell IC50. Here is the method: On day 1, cell seeding: after digestion of the cells with trypsin, the cells were resuspended to the desired density with the complete medium (RPMI-1640 supplemented with 10% FBS; the brand of FBS is EXCELL, Cat. No. FND500; the brand of RPMI-1640 is ATCC, Cat. No. 30-2001), mixed evenly, and added into the 96-well plate at 100 μL/well with a cell density of 1000-3000 cells per well. The plate was put back to the incubator for the adherent growth of cells. On day 2, the addition of the compounds to be tested: before the addition of the compounds, the cells were starved with serum-free medium for 4 h, then the complete medium containing the corresponding concentration of compounds was added thereto, and the cells were incubated at 37° C., 5% CO2 for 120 h. On day 7, the cell culture plates were taken out from incubator and equilibrated to room temperature. 50 μL of CellTiter-Glo (Promega Company, Cat. No. G7571) reagent was added per well, and the cells were fully lysed by shaking at room temperature for 2 min, and then incubated for another 60 min to detect the fluorescence intensity. Calculation formula:
(§1) % Inhibition=100−(signal of the well with the compound to be tested−signal of the well with only medium and free of cells)/(signal of the well with cells but without addition of the compound−signal of the well with only medium and free of cells)×100.
The fitting dose-effect curve of the analysis software GraphPad Prism 5 was used to give IC50 values of the individual compounds against cellular activity.

Another experiment concerns KP-4 cells. The experiment in a line: Inhibitory activity test of KP-4 cells. Format: cell-based. The settings on record: Homo sapiens, 144 h incubation, read-out: KP-4 cell inhibitory activity IC50. Here is the method:
On day 1, cell seeding: after digestion of the cells with trypsin, the cells were resuspended to 1*10^4/mL with RPMI1640 complete medium (HyClone Company, Cat. No. SH30809.01) supplemented with 10% FBS (Gibco, 10099141C), mixed evenly, and added into the 96-well plate at 100 μL/well. The plate was put back to the incubator for the adherent growth of cells. On day 2, the addition of the compounds to be tested: 100 μL of the complete medium containing the compounds (the concentration of the compound in the medium was formulated as follows: 3-fold gradient dilution from 60 μM, 10 concentration gradients in total) was added, incubated for 144 hours at 37° C., 5% CO2. On day 8, the cell culture plates were taken out from incubator and equilibrated to room temperature, excess medium was pipetted from the wells so that 50 μL of supernatant was retained, and 50 μL of CellCounting-Lite 2.0 (Nanjing Vazyme Biotech Co., Ltd., Cat. No. DD1101) reagent was added per well, and the cells were fully lysed by shaking at room temperature for 10 min, and incubated for 5 min to detect the fluorescence intensity.
as §1
(§2) The log value of concentration was used as the X-axis and % Inhibition was used as the Y-axis, so as to fit the dose-effect curve and calculate the IC50 value using nonlinear regression (dose response−variable slope) in the analysis software GraphPad Prism 8.

The test system of the next experiment is DOHH-2 cells. The experiment in a line: Inhibitory activity test of DOHH-2 cells. Format: cell-based. The settings on record: Homo sapiens, 120 h incubation, CellTiter-Glo, read-out: DOHH-2 cell inhibitory activity IC50. Here is the method:
On day 1, cell seeding: cells were resuspended to the desired density with DMEM complete medium (Gibico, Cat. No. 10569010) supplemented with 10% FBS (Gibco, 10099141C), mixed evenly, and added into the 384-well plate at 30 μL/well with a cell density of 800/well. The compounds to be tested were added as follows: 30 nL of DMSO solution containing the compound (the concentration of the compound in which was formulated as: 3-fold gradient dilution from 10 mM, 10 concentration points in total) was added, incubated for 120 h at 37° C., 5% CO2. On day 6, the cells treated with compounds were removed and equilibrated to room temperature, 30 μL of CellTiter-Glo (Promega company, Cat. No. G7573) reagent was added per well, and the cells were fully lysed by shaking at room temperature, and then incubated in dark at 37° C., 5% CO2 for 30 min, to detect the fluorescence intensity.
% Inhibition=100−(signal of the well with the compound to be tested−signal of the well with only medium and free of cells)/(signal of the well with cells but without the addition of the compound−signal of the well with only medium and free of cells)×100.
as §2
A general note: ATP-based viability assays read luminescence as a measure of living cells.

MAT2a, sequence (P31153 whole entry): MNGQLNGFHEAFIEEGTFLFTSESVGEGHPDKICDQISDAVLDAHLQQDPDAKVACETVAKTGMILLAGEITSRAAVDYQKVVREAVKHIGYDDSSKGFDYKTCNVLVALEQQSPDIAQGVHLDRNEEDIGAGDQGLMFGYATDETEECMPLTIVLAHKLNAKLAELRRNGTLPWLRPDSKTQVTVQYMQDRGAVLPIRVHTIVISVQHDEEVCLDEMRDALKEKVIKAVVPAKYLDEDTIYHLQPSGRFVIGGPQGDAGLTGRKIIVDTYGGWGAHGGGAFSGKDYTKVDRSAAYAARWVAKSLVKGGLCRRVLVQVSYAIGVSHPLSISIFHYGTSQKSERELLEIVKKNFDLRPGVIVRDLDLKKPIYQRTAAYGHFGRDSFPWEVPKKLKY

Turning to `COc1ccc(-c2c(N)c3ccc(C(F)(F)F)nc3n(-c3ccc(Cl)cc3)c2=O)cn1` [Example 20], the IC50 at MAT2a is 11.5 nM; with HCT116 MTAP-/- cells it was 24.5 nM; with KP-4 cells, 650 nM; with DOHH-2 cells, 48 nM.
The like results for `Nc1c(-c2ccc3ncsc3c2)c(=O)n(-c2ccc(Cl)cc2)c2nc(C(F)(F)F)ccc12` [Example 21] were, in that order, 16.2 nM, 22.9 nM, 270 nM and 507 nM.
The corresponding values for `Cn1cc2cc(-c3c(N)c4ccc(C(F)(F)F)nc4n(-c4ccc(Cl)cc4)c3=O)ccc2n1` [Example 25] are 13.3 nM, 13 nM, 1220 nM and 507 nM.
For the compound `Cc1ccc(-n2c(=O)c(-c3ccco3)c(N)c3ccc(C(F)(F)F)nc32)cc1` [Example 31], the IC50 on MAT2a amounted to 15.4 nM; in the experiment on HCT116 MTAP-/- cells, 13.4 nM; in the experiment on DOHH-2 cells, 430 nM.
On to `Cn1cc(-c2c(N)c3ccc(C(F)(F)F)nc3n(-c3ccc(Cl)cc3)c2=O)ccc1=O` [Example 44], for which the IC50 at MAT2a came to 13.4 nM; in the experiment with HCT116 MTAP-/- cells it was 18.6 nM; in the experiment on KP-4 cells it was 490 nM; with DOHH-2 cells it was 495 nM.
The corresponding values for `Nc1c(-c2ccc3ncncc3c2)c(=O)n(-c2ccc(Cl)cc2)c2nc(C(F)(F)F)ccc12` [Example 46] are 15.1 nM, 20.2 nM, 180 nM and 251 nM.
The like results for `COCCn1ncc2cc(-c3c(N)c4ccc(C(F)(F)F)nc4n(-c4ccc(Cl)cc4)c3=O)ccc21` [Example 47] were, in that order, 13.6 nM, 15.2 nM, 550 nM and 559 nM.
The like results for `COCCn1cc2cc(-c3c(N)c4ccc(C(F)(F)F)nc4n(-c4ccc(Cl)cc4)c3=O)ccc2n1` [Example 48] were, in that order, 16.1 nM, 13.3 nM, 170 nM and 518 nM.
In the case of `Nc1c(-c2ccc3nccnc3n2)c(=O)n(-c2ccc(Cl)cc2)c2nc(C(F)(F)F)ccc12` [Example 67], the IC50 is 18.1 nM on MAT2a, 16.3 nM with HCT116 MTAP-/- cells and 750 nM with KP-4 cells.
In the case of `Nc1c(-c2ccc3nonc3c2)c(=O)n(-c2ccc(Cl)cc2)c2nc(C(F)(F)F)ccc12` [Example 69], the results for the IC50 on MAT2a and with DOHH-2 cells were 16.6 nM and 663 nM, respectively.
